{"source": "patent US9422293B2", "about": "(priority 2006, dated 2016)", "note": "Where a name gives a salt, the structure may show the parent alone.", "data": [{"target": "rat TRPV1 (Rattus norvegicus (Rat), UniProt O35433)", "sequence (O35433 whole entry)": "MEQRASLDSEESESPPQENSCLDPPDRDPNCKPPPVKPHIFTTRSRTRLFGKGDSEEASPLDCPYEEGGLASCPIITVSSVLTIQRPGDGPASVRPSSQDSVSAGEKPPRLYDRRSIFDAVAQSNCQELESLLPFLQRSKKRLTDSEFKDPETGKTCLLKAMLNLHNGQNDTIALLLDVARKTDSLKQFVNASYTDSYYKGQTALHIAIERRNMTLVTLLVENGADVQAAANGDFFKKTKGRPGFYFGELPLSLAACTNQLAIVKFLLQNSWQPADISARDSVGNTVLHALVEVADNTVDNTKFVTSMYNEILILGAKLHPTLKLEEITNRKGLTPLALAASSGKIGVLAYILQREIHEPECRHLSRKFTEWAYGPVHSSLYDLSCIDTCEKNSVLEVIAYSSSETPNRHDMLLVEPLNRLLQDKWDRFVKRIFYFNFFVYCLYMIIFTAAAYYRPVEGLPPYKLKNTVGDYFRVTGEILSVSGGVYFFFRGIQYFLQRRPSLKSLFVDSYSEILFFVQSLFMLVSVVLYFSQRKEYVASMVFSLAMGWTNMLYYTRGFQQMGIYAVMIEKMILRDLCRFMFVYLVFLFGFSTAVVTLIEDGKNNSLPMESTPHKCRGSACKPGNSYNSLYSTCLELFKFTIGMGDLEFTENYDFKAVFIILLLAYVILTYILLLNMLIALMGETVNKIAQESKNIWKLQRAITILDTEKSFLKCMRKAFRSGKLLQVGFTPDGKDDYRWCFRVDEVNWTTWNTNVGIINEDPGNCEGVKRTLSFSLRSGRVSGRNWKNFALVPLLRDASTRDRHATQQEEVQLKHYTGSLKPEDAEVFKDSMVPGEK", "conditions": "read-out: Rat IC50", "units": {"IC50": "nM"}, "values": [{"compound": "FC(F)(F)c1ccc(Nc2nc(N3CCCCC3)nc3c2CCN(c2ncccc2C(F)(F)F)CC3)cc1", "note": "[Example 39, [2-Piperidin-1-yl-7-(3-trifluoromethyl-pyridin-2-yl)-6,7,8,9-tetrahydro-5H-pyrimido[4,5-d]azepin-4-yl]-(4-trifluoromethyl-phenyl)-amine]", "IC50": 18}, {"compound": "FC(F)(F)c1ccc(Nc2nc(N3CCOCC3)nc3c2CCN(c2ncccc2C(F)(F)F)CC3)cc1", "note": "[Example 40, [2-Morpholin-4-yl-7-(3-trifluoromethyl-pyridin-2-yl)-6,7,8,9-tetrahydro-5H-pyrimido[4,5-d]azepin-4-yl]-(4-trifluoromethyl-phenyl)-amine]", "IC50": "[…]"}, {"compound": "FC(F)(F)c1ccc(Nc2nc(N3CCOCC3)nc3c2CCN(c2ncccc2C(F)(F)F)CC3)nc1", "note": "[Example 41, [2-Morpholin-4-yl-7-(3-trifluoromethyl-pyridin-2-yl)-6,7,8,9-tetrahydro-5H-pyrimido[4,5-d]azepin-4-yl]-(5-trifluoromethyl-pyridin-2-yl)-amine]", "IC50": 49}, {"compound": "CC(C)(C)c1ccc(Nc2nc(N3CCCCC3)nc3c2CCN(c2ncccc2C(F)(F)F)CC3)cc1", "note": "[Example 42, (4-tert-Butyl-phenyl)-[2-piperidin-1-yl-7-(3-trifluoromethyl-pyridin-2-yl)-6,7,8,9-tetrahydro-5H-pyrimido[4,5-d]azepin-4-yl]-amine]", "IC50": 49}, {"compound": "CN(C)c1nc2c(c(Nc3ccc(C(F)(F)F)cn3)n1)CCN(c1ncccc1C(F)(F)F)CC2", "note": "[Example 44, N^2,N^2-Dimethyl-N^4-(5-trifluoromethyl-pyridin-2-yl)-7-(3-trifluoro-methyl-pyridin-2-yl)-6,7,8,9-tetrahydro-5H-pyrimido[4,5-d]azepine-2,4-diamine]", "IC50": 250}, {"compound": "CN(C)c1nc2c(c(Nc3ccc(C(F)(F)F)c(Cl)c3)n1)CCN(c1ncccc1C(F)(F)F)CC2", "note": "[Example 45, N^4-(3-Chloro-4-trifluoromethyl-phenyl)-N^2,N^2-dimethyl-7-(3-trifluoro-methyl-pyridin-2-yl)-6,7,8,9-tetrahydro-5H-pyrimido[4,5-d]azepine-2,4-diamine]", "IC50": 90}, {"compound": "CC(C)(C)c1ccc(Nc2nc(N3CCOCC3)nc3c2CCN(c2ncccc2C(F)(F)F)CC3)cc1", "note": "[Example 47, (4-tert-Butyl-phenyl)-[2-morpholin-4-yl-7-(3-trifluoromethyl-pyridin-2-yl)-6,7,8,9-tetrahydro-5H-pyrimido[4,5-d]azepin-4-yl]-amine]", "IC50": 23}, {"compound": "CN(C)c1nc2c(c(Nc3ccc(C(C)(C)C)cc3)n1)CCN(c1ncccc1C(F)(F)F)CC2", "note": "[Example 48, N^4-(4-tert-Butyl-phenyl)-N^2,N^2-dimethyl-7-(3-trifluoromethyl-pyridin-2-yl)-6,7,8,9-tetrahydro-5H-pyrimido[4,5-d]azepine-2,4-diamine]", "IC50": 74}, {"compound": "CN(C)c1nc2c(c(Nc3ccc(C(F)(F)F)cc3)n1)CCN(c1ncccc1C(F)(F)F)CC2", "note": "[Example 49, N^2,N^2-Dimethyl-N^4-(4-trifluoromethyl-phenyl)-7-(3-trifluoromethyl-pyridin-2-yl)-6,7,8,9-tetrahydro-5H-pyrimido[4,5-d]azepine-2,4-diamine]", "IC50": 240}, {"compound": "CN(C)c1nc2c(c(Nc3ccc(Cl)cc3)n1)CCN(c1ncccc1C(F)(F)F)CC2", "note": "[Example 50B, N^4-(4-Chloro-phenyl)-N^2,N^2-dimethyl-7-(3-trifluoromethyl-pyridin-2-yl)-6,7,8,9-tetrahydro-5H-pyrimido[4,5-d]azepine-2,4-diamine trifluoroacetic acid salt]", "IC50": 910}, {"compound": "Nc1nc2c(c(Nc3ccc(C(F)(F)F)cc3)n1)CCN(c1ncccc1C(F)(F)F)CC2", "note": "[Example 51, N^4-(4-Trifluoromethyl-phenyl)-7-(3-trifluoromethyl-pyridin-2-yl)-6,7,8,9-tetrahydro-5H-pyrimido[4,5-d]azepine-2,4-diamine]", "IC50": 1200}, {"compound": "CSc1nc2c(c(Nc3ccc(C(F)(F)F)cc3)n1)CCN(c1ncccc1C(F)(F)F)CC2", "note": "[Example 52, [2-Methylsulfanyl-7-(3-trifluoromethyl-pyridin-2-yl)-6,7,8,9-tetrahydro-5H-pyrimido[4,5-d]azepin-4-yl]-(4-trifluoromethyl-phenyl)-amine]", "IC50": 53}, {"compound": "CS(=O)(=O)c1nc2c(c(Nc3ccc(C(F)(F)F)cc3)n1)CCN(c1ncccc1C(F)(F)F)CC2", "note": "[Example 53, [2-Methanesulfonyl-7-(3-trifluoromethyl-pyridin-2-yl)-6,7,8,9-tetrahydro-5H-pyrimido[4,5-d]azepin-4-yl]-(4-trifluoromethyl-phenyl)-amine]", "IC50": "> 6700"}, {"compound": "FC(F)(F)c1ccc(Nc2nc(Nc3ccccc3)nc3c2CCN(c2ncccc2C(F)(F)F)CC3)cc1", "note": "[Example 54, N^2-Phenyl-N^4-(4-trifluoromethyl-phenyl)-7-(3-trifluoromethyl-pyridin-2-yl)-6,7,8,9-tetrahydro-5H-pyrimido[4,5-d]azepine-2,4-diamine]", "IC50": 230}, {"compound": "FC(F)(F)c1ccc(Nc2nc(NC3CC3)nc3c2CCN(c2ncccc2C(F)(F)F)CC3)cc1", "note": "[Example 55B, N^2-Cyclopropyl-N^4-(4-trifluoromethyl-phenyl)-7-(3-trifluoromethyl-pyridin-2-yl)-6,7,8,9-tetrahydro-5H-pyrimido[4,5-d]azepine-2,4-diamine trifluoroacetic acid salt]", "IC50": 150}, {"compound": "FC(F)(F)c1ccc(Nc2nc(N3CCC3)nc3c2CCN(c2ncccc2C(F)(F)F)CC3)cc1", "note": "[Example 56B, [2-Azetidin-1-yl-7-(3-trifluoromethyl-pyridin-2-yl)-6,7,8,9-tetrahydro-5H-pyrimido[4,5-d]azepin-4-yl]-(4-trifluoromethyl-phenyl)-amine trifluoroacetic acid salt]", "IC50": 64}, {"compound": "OC1CCN(c2nc3c(c(Nc4ccc(C(F)(F)F)cc4)n2)CCN(c2ncccc2C(F)(F)F)CC3)CC1", "note": "[Example 59B, 1-[4-(4-Trifluoromethyl-phenylamino)-7-(3-trifluoromethyl-pyridin-2-yl)-6,7,8,9-tetrahydro-5H-pyrimido[4,5-d]azepin-2-yl]-piperidin-4-ol trifluoroacetic acid salt]", "IC50": 380}, {"compound": "CC(C)N1CCN(c2nc3c(c(Nc4ccc(C(F)(F)F)cc4)n2)CCN(c2ncccc2C(F)(F)F)CC3)CC1", "note": "[Example 60B, [2-(4-Isopropyl-piperazin-1-yl)-7-(3-trifluoromethyl-pyridin-2-yl)-6,7,8,9-tetrahydro-5H-pyrimido[4,5-d]azepin-4-yl]-(4-trifluoromethyl-phenyl)-amine trifluoroacetic acid salt]", "IC50": 140}, {"compound": "COc1nc2c(c(Nc3ccc(C(F)(F)F)cc3)n1)CCN(c1ncccc1C(F)(F)F)CC2", "note": "[Example 62, [2-Methoxy-7-(3-trifluoromethyl-pyridin-2-yl)-6,7,8,9-tetrahydro-5H-pyrimido[4,5-d]azepin-4-yl]-(4-trifluoromethyl-phenyl)-amine]", "IC50": 53}, {"compound": "CN(C)c1nc2c(c(Nc3ccc(Cl)c(Cl)c3)n1)CCN(c1ncccc1C(F)(F)F)CC2", "note": "[Example 63B, N^4-(3,4-Dichloro-phenyl)-N^2,N^2-dimethyl-7-(3-trifluoromethyl-pyridin-2-yl)-6,7,8,9-tetrahydro-5H-pyrimido[4,5-d]azepine-2,4-diamine trifluoroacetic acid salt]", "IC50": 2500}, {"compound": "CN(C)c1nc2c(c(Nc3ccc(C(C)(C)C#N)cc3)n1)CCN(c1ncccc1C(F)(F)F)CC2", "note": "[Example 65B, 2-{4-[2-Dimethylamino-7-(3-trifluoromethyl-pyridin-2-yl)-6,7,8,9-tetrahydro-5H-pyrimido[4,5-d]azepin-4-ylamino]-phenyl}-2-methyl-propionitrile trifluoroacetic acid salt]", "IC50": 650}, {"compound": "CC(C)(C)c1ccc(Nc2nc(CN3CCCCC3)nc3c2CCN(c2ncccc2C(F)(F)F)CC3)cc1", "note": "[Example 66B, (4-tert-Butyl-phenyl)-[2-piperidin-1-ylmethyl-7-(3-trifluoromethyl-pyridin-2-yl)-6,7,8,9-tetrahydro-5H-pyrimido[4,5-d]azepin-4-yl]-amine trifluoroacetic acid salt]", "IC50": 930}, {"compound": "COCc1nc2c(c(Nc3ccc(C(C)(C)C)cc3)n1)CCN(c1ncccc1C(F)(F)F)CC2", "note": "[Example 67B, (4-tert-Butyl-phenyl)-[2-methoxymethyl-7-(3-trifluoromethyl-pyridin-2-yl)-6,7,8,9-tetrahydro-5H-pyrimido[4,5-d]azepin-4-yl]-amine trifluoroacetic acid salt]", "IC50": 34}, {"compound": "CN(C)c1nc2c(c(Nc3ccc4c(c3)OCCO4)n1)CCN(c1ncccc1C(F)(F)F)CC2", "note": "[Example 68B, N^4-(2,3-Dihydro-benzo[1,4]dioxin-6-yl)-N^2,N^2-dimethyl-7-(3-trifluoromethyl-pyridin-2-yl)-6,7,8,9-tetrahydro-5H-pyrimido[4,5-d]azepine-2,4-diamine trifluoroacetic acid salt]", "IC50": 3200}, {"compound": "Cc1nc2c(c(Nc3ccc(C(F)(F)F)cn3)n1)CCN(c1ncccc1C(F)(F)F)CC2", "note": "[Example 69, [2-Methyl-7-(3-trifluoromethyl-pyridin-2-yl)-6,7,8,9-tetrahydro-5H-pyrimido[4,5-d]azepin-4-yl]-(5-trifluoromethyl-pyridin-2-yl)-amine]", "IC50": 500}, {"compound": "CN(C)c1nc2c(c(NCc3ccccc3)n1)CCN(c1ncccc1C(F)(F)F)CC2", "note": "[Example 70B, N^4-Benzyl-N^2,N^2-dimethyl-7-(3-trifluoromethyl-pyridin-2-yl)-6,7,8,9-tetrahydro-5H-pyrimido[4,5-d]azepine-2,4-diamine trifluoroacetic acid salt]", "IC50": 4400}]}, {"target": "rat TRPV1 (Rattus norvegicus (Rat), UniProt O35433)", "conditions": "read-out: Rat IC50; hydrochloride salt", "units": {"IC50": "nM"}, "values": [{"compound": "FC(F)(F)c1ccc(Nc2nc(N3CCCCC3)nc3c2CCN(c2ncccc2C(F)(F)F)CC3)cc1", "note": "[Example 39A, [2-Piperidin-1-yl-7-(3-trifluoromethyl-pyridin-2-yl)-6,7,8,9-tetrahydro-5H-pyrimido[4,5-d]azepin-4-yl]-(4-trifluoromethyl-phenyl)-amine hydrochloride salt]", "IC50": 23}, {"compound": "FC(F)(F)c1ccc(Nc2nc(N3CCOCC3)nc3c2CCN(c2ncccc2C(F)(F)F)CC3)cc1", "note": "[Example 40A, [2-Morpholin-4-yl-7-(3-trifluoromethyl-pyridin-2-yl)-6,7,8,9-tetrahydro-5H-pyrimido[4,5-d]azepin-4-yl]-(4-trifluoromethyl-phenyl)-amine hydrochloride salt]", "IC50": "[…]"}]}]}
